Reference: patent publication US7026326B2, “Substituted heterocyclic compounds and methods of use” (Amgen Inc., priority 2002, dated 2006)

Tested on: LPS induced TNF release
Experiment: Lipopolysaccharide-Activated THP1 Cell TNF Production Assay
Type: cell-based
Conditions: Homo sapiens, THP-1; THP1 cells, bacterial LPS, TNF-α secretion at 37° C. for 3 h
Method: Lipopolysaccharide-Activated THP1 Cell TNF Production Assay
THP1 cells are resuspended in fresh THP1 media (RPMI 1640, 10% heat-inactivated FBS, 1xPGS, 1XNEAA, plus 30 μM βME) at a concentration of 1E6/mL. One hundred microliters of cells per well are plated in a polystyrene 96-well tissue culture. One microgram per mL of bacterial LPS is prepared in THP1 media and is transferred to the wells. Test compounds are dissolved in 100% DMSO and are serially diluted 3 fold in a polypropylene 96-well microtiter plate (drug plate). HI control and LO control wells contain only DMSO. One microliter of test compound from the drug plate followed by 10 μL of LPS are transferred to the cell plate. The treated cells are induced to synthesize and secrete TNF-α at 37° C. for 3 h. Forty microliters of conditioned media are transferred to a 96-well polypropylene plate containing 110 μL of ECL buffer (50 mM Tris-HCl pH 8.0, 100 mM NaCl, 0.05% Tween 20, 0.05% NaN3 and 1% FBS) supplemented with 0.44 nM MAB610 monoclonal Ab (R&D Systems), 0.34 nM ruthenylated AF210NA polyclonal Ab (R&D Systems) and […] sheep anti-mouse M280 Dynabeads (Dynal). After a 2 h incubation at room temperature with shaking, the reaction is read on the ECL M8 Instrument (IGEN Inc.). A low voltage is applied to the ruthenylated TNF-α immune complexes, which in the presence of TPA (the active component in Origlo), results in a cyclical redox reaction generating light at […]. The amount of secreted TNF-α in the presence of compound compared with that in the presence of DMSO vehicle alone (HI control) is calculated using the formula: % control (POC)=(cpd−average LO)/(average HI−average LO)*100. Data (consisting of POC and inhibitor concentration in μM) is fitted to a 4-parameter equation (y=A+((B−A)/(1+((x/C)^D))), where A is the minimum y (POC) value, B is the maximum y (POC), C is the x (cpd concentration) at the point of inflection and D is the slope factor) using a Levenburg-Marquardt non-linear regression algorithm.

IC50, ≤ 20 µM:
Cn1c(C2CCN(C[C@H](N)Cc3ccccc3)CC2)cc(-c2ccncc2)c(-c2ccc3ccccc3c2)c1=O [Example 19, 1-{(2R)-Amino-3-phenyl-propyl}-1′-methyl-5′-naphthalen-2-yl-1,2,3,4,5,6-hexahydro-1′H-[4,2′;4′,4″]terpyridin-6′-one]
CC(C)N1CC(c2cc(-c3ccncc3)c(-c3ccc4ccccc4c3)c(=O)n2C)CC1CO (stereo not drawn) [Example 16, 6-[5-(hydroxymethyl)-1-(methylethyl)pyrrolidin-3-yl]-1-methyl-3-(2-naphthyl)-4-(4-pyridyl)hydropyridin-2-one]
C=Cc1cccc(-c2c(-c3ccncc3)nc(N3CCC[C@@H]3CNC(C)C)n(C)c2=O)c1 [Example 5, 2-[2-(Isopropylamino-methyl)-pyrrolidin-1-yl]-3-methyl-6-pyridin-4-yl-5-(3-vinyl-phenyl)-3H-pyrimidin-4-one]
CC(C)NC[C@H]1CCCN1c1cc(-c2ccncc2)c(-c2ccc3ccccc3c2)c(=O)n1C [Example 30, 6-[2-(Isopropylamino-methyl)-pyrrolidin-1-yl]-1-methyl-3-naphthalen-2-yl-1H-4[4,4′]bipyridinyl-2-one]
Cn1c(C2CCN(CC(C)(C)O)CC2)cc(-c2ccncc2)c(-c2ccc3ccccc3c2)c1=O [Example 13, 1-(2-Hydroxy-2-methyl-propyl)-1′-methyl-5′-naphthalen-2-yl-1,2,3,4,5,6-hexahydro-1′H-[4,2′;4′,4″]terpyridin-6′-one]
Cn1c(C2CCCN2CCNC(=O)OC(C)(C)C)cc(-c2ccncc2)c(-c2ccc3ccccc3c2)c1=O (stereo not drawn) [Example 27, {2-[2-(1-Methyl-5-naphthalen-2-yl-6-oxo-1,6-dihydro-[4,4′]bipyridinyl-2-yl)-pyrrolidin-1-yl]-ethyl}-carbamic acid tert-butyl ester]
COC[C@@H]1CCCN1c1nc(-c2ccnc(Cl)c2)c(-c2cccc(C)c2)c(=O)n1C [Example 9, 6-(2-Chloro-pyridin-4-yl)-2-(2-methoxymethyl-pyrrolidin-1-yl)-3-methyl-5-m-tolyl-3H-pyrimidin-4-one]
Cc1cccc(-c2c(-c3ccncc3)nc(N3CCC[C@@H]3CNC(C)C)n(C)c2=O)c1 [Example 7, 2-[2-(Isopropylamino-methyl)-pyrrolidin-1-yl]-3-methyl-6-pyridin-4-yl-5-m-tolyl-3H-pyrimidin-4-one]
CC(C)NCC1CCCN1c1cc(-c2ccncc2)c(-c2ccc(Cl)cc2)c(=O)n1C (stereo not drawn) [Example 31, 3-(4-Chlorophenyl)-1-methyl-6-(2-{[(methylethyl)amino]methyl}pyrrolidinyl)-4-(4-pyridyl)hydropyridin-2-one]
CC(C)NC[C@H]1CCCN1c1nc(-c2ccncc2)c(-c2cccc(Br)c2)c(=O)n1C [Example 4, 5-(3-Bromo-phenyl)-2-[2-(isopropylamino-methyl)-pyrrolidin-1-yl]-3-methyl-6-pyridin-4-yl-3H-pyrimidin-4-one]
Cn1c(C2CCN(C[C@H](Cc3ccccc3)NC(=O)OC(C)(C)C)CC2)cc(-c2ccncc2)c(-c2ccc3ccccc3c2)c1=O [Example 21, [(1S)-Benzyl-2-(1′-methyl-5′-naphthalen-2-yl-6′-oxo-3,4,5,6,1′,6′-hexahydro-2H-[4,2′;4′,4″]terpyridin-1-yl)-ethyl]-carbamic acid tert-butyl ester]
CC(O)CN1CCC(c2cc(-c3ccncc3)c(-c3ccc4ccccc4c3)c(=O)n2C)C1 (stereo not drawn) [Example 25, 6-[1-(2-Hydroxy-propyl)-pyrrolidin-3-yl]-1-methyl-3-naphthalen-2-yl-1H-[4,4′]bipyridinyl-2-one]
C[C@@H](O)CN1CCC(c2cc(-c3ccncc3)c(-c3ccc4ccccc4c3)c(=O)n2C)CC1 [Example 11, 1-(2R-Hydroxy-propyl)-1′-methyl-5′-naphthalen-2-yl-1,2,3,4,5,6-hexahydro-1′H-[4,2′;4′,4″]terpyridin-6′-one]
Cn1c(C2CNC(CO)C2)cc(-c2ccncc2)c(-c2ccc3ccccc3c2)c1=O (stereo not drawn) [Example 15, 6-[5-(Hydroxymethyl)pyrrolidin-3-yl]-1-methyl-3-(2-naphthyl)-4-(4-pyridyl)-hydropyridin-2-one]
Cn1c(C2CCCN2CCN)cc(-c2ccncc2)c(-c2ccc3ccccc3c2)c1=O (stereo not drawn) [Example 28, 6-[1-(2-Amino-ethyl)-pyrrolidin-2-yl]-1-methyl-3-naphthalen-2-yl-1H-[4,4′]bi-pyridinyl-2-one]
CC(C)NC[C@@H]1CCCN1c1nc(-c2ccncc2)c(-c2ccc(Cl)cc2)c(=O)n1C [Example 2]
CC(C)NCC1CCCN1c1cc(-c2ccncc2)c(-c2ccc3ccccc3c2)nn1 (stereo not drawn) [Example 14, Isopropyl-[1-(6-naphthalen-2-yl-5-pyridin-4-yl-pyridazin-3-yl)-pyrrolidin-2-ylmethyl]-amine]
CC(C)N[C@@H](Cc1ccccc1)CN1CCC(c2cc(-c3ccncc3)c(-c3ccc4ccccc4c3)c(=O)n2C)CC1 [Example 23, 1-{(2S)-Isopropylamino-3-phenyl-propyl}-1′-methyl-5′-naphthalen-2-yl-1,2,3,4,5,6-hexahydro-1′H-[4,2′;4′,4″]terpyridin-6′-one]
CC(C)NC[C@H]1CCCN1c1nc(-c2ccncc2)c(-c2ccc3ccccc3c2)c(=O)n1C [Example 8, 2-[2-(Isopropylamino-methyl)-pyrrolidin-1-yl]-3-methyl-5-naphthalen-2-yl-6-pyridin-4-yl-3H-pyrimidin-4-one]
Cn1c(C2CCN(CC(C)(C)O)C2)cc(-c2ccncc2)c(-c2ccc3ccccc3c2)c1=O (stereo not drawn) [Example 26, 6-[1-(2-Hydroxy-2-methyl-propyl)-pyrrolidin-3-yl]-1-methyl-3-naphthalen-2-yl-1H-[4,4′]bipyridinyl-2-one]
CC(C)NC[C@H]1CCCN1c1c(Cl)c(-c2ccncc2)c(-c2ccc3ccccc3c2)c(=O)n1C (stereo in doubt) [Example 29, 5-Chloro-6-[2-(isopropylamino-methyl)-pyrrolidin-1-yl]-1-methyl-3-naphthalen-2-yl-1H-[4,4′]bipyridinyl-2-one]
Cn1c(N2CCCC2CO)cc(-c2ccncc2)c(-c2ccc(Cl)cc2)c1=O (stereo not drawn) [Example 17, 3-(4-chlorophenyl)-6-[2-(hydroxymethyl)pyrrolidinyl]-1-methyl-4-(4-pyridyl)-hydropyridin-2-one]
COC[C@@H]1CCCN1c1nc(-c2ccnc(N[C@@H](C)c3ccccc3)c2)c(-c2cccc(C)c2)c(=O)n1C [Example 10, 2-(2-Methoxymethyl-pyrrolidin-1-yl)-3-methyl-6-[2-(1-phenyl-ethylamino)-pyridin-4-yl]-5-m-tolyl-3H-pyrimidin-4-one]
Cn1c(C2CCN(C[C@@H](N)Cc3ccccc3)CC2)cc(-c2ccncc2)c(-c2ccc3ccccc3c2)c1=O [Example 22, 1-{(2S)-Amino-3-phenyl-propyl}-1′-methyl-5′-naphthalen-2-yl-1,2,3,4,5,6-hexahydro-1′H-[4,2′;4′,4″]terpyridin-6′-one]
CC(C)N[C@H](Cc1ccccc1)CN1CCC(c2cc(-c3ccncc3)c(-c3ccc4ccccc4c3)c(=O)n2C)CC1 [Example 20, 1-{(2R)-Isopropylamino-3-phenyl-propyl}-1′-methyl-5′-naphthalen-2-yl-1,2,3,4,5,6-hexahydro-1′H-[4,2′;4′,4″]terpyridin-6′-one]
CC(C)NC[C@H]1CCCN1c1nc(-c2ccncc2)c(-c2cccc(C3CC3)c2)c(=O)n1C [Example 6, 5-(3-Cyclopropyl-phenyl)-2-[2-(isopropylamino-methyl)-pyrrolidin-1-yl]-3-methyl-6-pyridin-4-yl-3H-pyrimidin-4-one]
Cn1c(C2CCN(C[C@@H](Cc3ccccc3)NC(=O)OC(C)(C)C)CC2)cc(-c2ccncc2)c(-c2ccc3ccccc3c2)c1=O [Example 18, [(1R)-Benzyl-2-(1′-methyl-5′-naphthalen-2-yl-6′-oxo-3,4,5,6,1′,6′-hexahydro-2H-[4,2′;4′,4″]terpyridin-1-yl)-ethyl]-carbamic acid tert-butyl ester]
